Assay results published in US20150315218A1, “SALTS OF PRODRUGS OF PIPERAZINE AND SUBSTITUTED PIPERIDINE ANTIVIRAL AGENTS” (Bristol-Myers Squibb Company, priority 2004, published 2015).
Counter-ions that a name gives are not always drawn. Like-named read-outs stand apart in the source and are kept apart here. Values belong to the molecule of their own block, whether it stands above or below them.

Tests used:
[1] = system: HIV-1; test: Multiple dose study in HIV patients (antiviral activity of IVa); format: in vivo, human
Experimental: Based on the exposure data from the studies in normal volunteers, an efficacy study was carried out in HIV patients. […] “Antiviral Activity, Safety, and Tolerability of a Novel, Oral Small-Molecule HIV-1 Attachment Inhibitor, IVa, in HIV-1-Infected Subjects” G. Hanna, J. Lalezari, J. Hellinger, D. Wohl, T. Masterson, W. Fiske, J. Kadow, P-F. Lin, M. Giordano, R. Colonno, D. Grasela. Abstract J-32, Feb. 11, 2004, 11th Conference on Retroviruses and Opportunistic Infections (CROI), San Francisco, Calif. The study design included HIV+ adults who were either antiretroviral therapy naïve or off antiretroviral therapy for ≧16 weeks. Their CD4 counts were required to be ≧250 cells/mm3 and plasma HIV-1 RNA needed to be in the range 5,000-500,000 c/mL. There were 15 subjects in each dose arm and the ratio of patients receiving drug:placebo was 4:1.
The placebo-controlled, sequential study of IVa utilized an initial dose arm of 800 mg PO every 12 h followed by a second dosing arm of 1800 mg PO administered every 12 h. It is important to note that drug was administered in a capsule and in combination with a high fat meal to increase exposure and plasma levels. Study drug was administered for 7 days and the morning of Day 8. Subjects were followed for 14 days.

[2] = Cytotoxicity assay (XTT dye reduction) in MT-2 cells; format: cell-based; conditions: human, six days
[3] = Multiple dose study of Compound IVa in healthy humans; format: in vivo, human; conditions: multiple Q12H doses, 14 days
Experimental: A placebo-controlled, ascending multiple-dose study to evaluate the safety, tolerability and pharmacokinetics of Compound IVa in healthy human subjects was carried out. Dosing was continued at 12 h intervals for 14 days. […] Thus, the exposure was better when dosing was combined with a high fat meal and exposure increases with dose were higher with a high fat meal.

[4] = MAP studies G and H: PO dosing of diester IIa and monoester II′a in rats; format: in vivo, rat; conditions: 5 mg/kg; for AUC / Cmax / Tmax / bioavailability / half-life: male, Sprague-Dawley, rat, plasma, po; for half-life: read-out: T½ p.o. (converted)
Experimental: Compound IVa was administered in a polyethylene glycol 400 (PEG400)/ethanol (EtOH) solution (90/10, v/v) unless noted otherwise. Plasma and tissue samples were collected and stored at −20° C. until analysis. Male Sprague-Dawley rats (300-350 g, Hilltop Lab Animals, Inc., Scottdale, Pa. 15683) with cannulas implanted in the jugular vein and/or bile duct were used in the pharmacokinetic studies of compound IVa. Rats were fasted overnight in PO studies. Blood samples (0.3 mL) were collected from the jugular vein in EDTA-containing microtainer tubes (Becton Dickinson, Franklin Lakes, N.J. 07147) to obtain plasma. […] In the PO studies, rats (n=3) received PO doses of 5 and 100 mg/kg.
The procedure for the oral dosing leg of MAP study A1 was followed except that diester IIa was utilized in place of Compound IVa. […] The data is described in Table 10 below:
The procedure for the oral dosing leg of MAP study A1 was followed except that monoester II′a was utilized in place of Compound IVa. […]

[5] = Single dose study of Compound IVa in healthy human volunteers (capsule/solution, fasted/fed; first-in-human); format: in vivo; conditions: for AUCtotal / Cmax: n = 6
Experimental: The parent compound IVa has been studied in human clinical trials. The compound was dosed in healthy human volunteers.
It is also readily apparent from the oral AUCs, that increases in drug exposure increased much more slowly and less than proportionally with dose. […] Between 200-800 mg dose range the increases in systemic exposure is dose-related although less than dose-proportional, while such exposure is dose independent above dose of 800 mg.
Dosing with a solution increased Compound IVa exposure.
The AUCs after a fed treatment were approximately 2.5 and 4.7 fold for 800 and 1800 mg doses, respectively, of those of the fasted treatment.
For the 800 mg capsule with food, the average plasma concentration is 1001 and 218 ng/mL at 8 and 12 hours post dose, respectively. The results supported a ql2 h or q8 h dosing regimen for a targeted Cmin value of at least 200 ng/mL after multiple doses. This value was selected based on preclinical data.

[6] = 2-week rat toxicity study (5, 50 or 500 mg/kg BID); format: in vivo; conditions: 2 weeks, in-life phase completed
Experimental: A 2-week rat toxicity study using dosages of 5, 50, or 500 mg/kg BID to support the IND is ongoing (3).

[7] = pKa; format: physicochemical; conditions: read-out: pKa (potentiometric)
[8] = dog, 10 μM
[9] = monkey
[10] = dog
[11] = monkey, 10 μM
[12] = rat
[13] = 800 mg PO every 12 h with high fat meal
[14] = IVa following PO dosing of diester IIa
[15] = IVa following PO dosing of monoester II′a
[16] = 1800 mg capsule, high fat meal vs fasted
[17] = fed (high fat meal), dose ratio 1:2.3 (800 mg vs. 1800 mg)

Compound: COc1ncc(OC)c2c(C(=O)C(=O)N3CCN(C(=O)c4ccccc4)CC3)c[nH]c12 [IVa, N-(benzoyl)-N′-[(4,7-dimethoxy-6-azaindol-3-yl)-oxoacetyl]piperazine]
Day 8 Change in CD4, Mean (SD) [1, 13]: 106 (151) cells/mm3
Day 8 Change in CD4, Range [1, 13]: −214 to +272 cells/mm3
Maximal Change in HIV RNA Over 14 days >0.5 log10 c/mL, n (%) [1, 13]: 8 (67%) n (%)
Maximal Change in HIV RNA Over 14 days >1.0 log10 c/mL, n (%) [1, 13]: 7 (58%) n (%)
Maximal Change in HIV RNA Over 14 days >1.5 log10 c/mL, n (%) [1, 13]: 3 (25%) n (%)
Maximal change in HIV RNA Over 14 days, Mean (SD) [1, 13]: −1.00 (0.50) log10 c/mL
Maximal change in HIV RNA Over 14 days, Range [1, 13]: −0.32 to −1.60 log10 c/mL
Day 8 Change in HIV RNA, Mean (SD) ([1]; 800 mg PO every 12 h with high fat meal, HIV+ adults): −0.72 (0.51) log10 c/mL
patients with >1.0 log drop in viral load ([1]; 800 mg dosing level with high fat meal): 58%
mean response (drop in viral load) ([1]; 1800 mg every 12 h with high fat meal): −0.96 log 10
CC50 at 6 days [2]: > 10 µM
accumulation [3]: ≤ 1.5 fold
Cp @ 24 hr p.o. (nM) [4, 14]: Not detected
Cp @ 24 hr p.o. (nM) ([4]; IVa following PO dosing of monoester II′a, n = 2/3): 3.61 (n = 2/3) nM
AUC [4, 14]: 4 ± 1 µM·h
Cmax [4, 14]: 1120 ± 270 nM
Tmax [4, 14]: 2.7 ± 1.2 h
bioavailability [4, 14]: 33%
half-life [4, 14]: 78 ± 15.6 min
AUC [4, 15]: 5.9 ± 2.2 µM·h
Cmax [4, 15]: 1590 ± 615 nM
Tmax [4, 15]: 2 ± 1.7 h
bioavailability [4, 15]: 44%
half-life [4, 15]: 168 ± 96 min
AUC of the solution relative to the capsule ([5]; 200 mg): ~3 fold
Cmax of the solution relative to the capsule ([5]; 200 mg): approximately 8 fold
relative bioavailability (fed vs. fasted) ([5]; 800 mg): 293%
AUCtotal ([5]; 800 mg, Fasting): 22 ± 12 µM·h
AUCtotal ([5]; 800 mg, Fed): 53 ± 10 µM·h
relative bioavailability (fed vs. fasted) ([5]; 1800 mg): 509%
AUC Fed/Fasting Ratio [5, 16]: 4.3
Cmax Fed/Fasting Ratio [5, 16]: 4.5
AUCtotal ([5]; 1800 mg, Fasting): 19 ± 5.8 µM·h
AUCtotal ([5]; 1800 mg, Fed): 82 ± 16 µM·h
ratio of AUC [5, 17]: 1.5
ratio of Cmax [5, 17]: 1.6
bioavailability ([5]; human, plasma, oral, 200 mg, read-out: relative bioavailability of the capsule to the solution formulation): 32%
Cmax ([5]; human, plasma, oral, 800 mg, Fasting): 3.7 ± 1.1 µM
Cmax ([5]; human, plasma, oral, 800 mg, Fed): 9.8 ± 1.3 µM
Cmax ([5]; human, plasma, oral, 1800 mg, Fasting): 3.3 ± 0.84 µM
Cmax ([5]; human, plasma, oral, 1800 mg, Fed): 15 ± 5 µM
concentration at 8 h ([5]; human, plasma, oral, 800 mg capsule with food, 8 hours post dose): 1000 ng/mL
concentration at 12 h ([5]; human, plasma, oral, 800 mg capsule with food, 12 hours post dose): 218 ng/mL
Tmax ([5]; human, plasma, oral, fed, read-out: median Tmax): 4 h

Compound: COc1cnc(OC)c2c1c(C(=O)C(=O)N1CCN(C(=O)c3ccccc3)CC1)cn2COP(=O)(O)O [Iab, {3-[(4-benzoylpiperazin-1-yl)(oxo)acetyl]-4,7-dimethoxy-1H-pyrrolo[2,3-c]pyridin-1-yl}methyl dihydrogen phosphate, L-lysine salt (1:1)]
in-life observations [6]: no noteworthy in-life observations

Compound: O=C(C(=O)N1CCN(C(=O)c2ccccc2)CC1)c1cn(COP(=O)(O)O)c2c(-n3ccnn3)ncc(F)c12 [Ibb, [3-[(4-benzoylpiperazin-1-yl)(oxo)acetyl]-4-fluoro-7-(1H-1,2,3-triazol-1-yl)-1H-pyrrolo[2,3-c]pyridin-1-yl]methyl dihydrogen phosphate, L-lysine salt (1:1)]
pKa [7]: 6.1

Icb ([8]; 0 min): 10 µM
Icb ([8]; 15 min): 9.7 µM
Icb ([8]; 90 min): 6.9 µM
conversion of prodrug to parent in blood containing EDTA [9]: < 2%
Icb ([9]; 0 min): 12 µM
Icb ([9]; 15 min): 12 µM
Icb ([9]; 90 min): 11 µM
conversion of prodrug to parent in blood containing EDTA [10]: < 2%
Icb ([10]; 0 min): 10 µM
Icb ([10]; 15 min): 10 µM
Icb ([10]; 90 min): 11 µM
Icb ([11]; 0 min): 9.3 µM
Icb ([11]; 15 min): 7.1 µM
Icb ([11]; 90 min): 1.1 µM
conversion of prodrug to parent in blood containing EDTA [12]: < 2%
Icb ([12]; 0 min): 12 µM
Icb ([12]; 15 min): 11 µM
Icb ([12]; 90 min): 12 µM
Compound: COc1cnc(-n2cnc(C)n2)c2c1c(C(=O)C(=O)N1CCN(C(=O)c3ccccc3)CC1)cn2COP(=O)(O)O [Icb, [3-[(4-benzoylpiperazin-1-yl)(oxo)acetyl]-4-methoxy-7-(3-methyl-1H-1,2,4-triazol-1-yl)-1H-pyrrolo[2,3-c]pyridin-1-yl]methyl dihydrogen phosphate, 2-amino-2-(hydroxymethyl)propane-1,3-diol salt (1:1)]
